Source: patent publication US11999727B2 (Tango Therapeutics, Inc., priority 2020, dated 2024)
pIC50: −log10 of the molar value. Like-named read-outs stand apart in the source and are kept apart here.

Assays:
[1] = test system: HAP1 MTAP-deleted cell line; test: SDMA in-cell western assay, HAP1 MTAP-deleted; assay type: cell-based; settings: for pIC50: Homo sapiens, HAP1, SDMA in-cell western, HAP1 MTAP-deleted; for MTAP intact/deleted ratio: SDMA in-cell western
Summary of the method: (§1)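 Isogenic HAP1 pair: the MTAP-intact line expresses endogenous MTAP, and the deleted line is MTAP-null. Symmetric dimethylarginine was detected by in-cell western and IC50 values derived for each line.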

[2] = test system: HAP1 MTAP-intact cell line; test: SDMA in-cell western assay, HAP1 MTAP-intact; assay type: cell-based; settings: HAP1 MTAP-intact, read-out: MTAP HAP1 intact IC50
Summary of the method: as §1

PRMT5 [3] = target: T1, PRMT5 (Homo sapiens, UniProt O14744); test: PRMT5 biochemical IC50 assay with no cofactor; settings: PRMT5, no cofactor
T1 construct: purchased Viva (custom protein)
Description: Table 1 indicates IC50 values (μM) against PRMT5 for exemplary compounds in the presence of SAM as cofactor, with no cofactor, and with MTA as cofactor, respectively (columns 4-6). […] Ki values can be calculated from the IC50 values as described in the Examples section. As detailed in the Examples section, for the assay performed in the presence of SAM, IC50=Ki×1.5 (Ki=IC50/1.5).

PRMT5 [4] = target: T1, PRMT5; test: PRMT5 biochemical IC50 assay with MTA as cofactor; settings: PRMT5, MTA as cofactor; read-out: MTA IC50
[5] = test system: HAP1 MTAP-deleted cell line; test: Viability assay, MTAP-deleted cell line; assay type: cell-based; settings: read-out: HAP1 MTAP deleted viability
Description: Table 1 additionally indicates IC50 values in a viability assay for the MTAP-deleted cell line (column 10), indicating the effect of treatment with compound on cell survival.

PRMT5 [6] = target: T1, PRMT5; test: PRMT5 biochemical IC50 assay with SAM as cofactor; settings: PRMT5, SAM as cofactor; read-out: SAM IC50
[7] = read-out: HAP 1 MTAP deleted IC50
[8] = IC50 ratio HAP1 MTAP-intact / HAP1 MTAP-deleted
[9] = Homo sapiens, HAP1, SDMA in-cell western
[10] = read-out: No Cofactor/ rel IC50
[11] = Homo sapiens, HAP1, viability assay, MTAP-deleted cell line
[12] = read-out: HAP1 MTAP deleted IC50
[13] = Homo sapiens, HAP1, viability assay, HAP1 MTAP-deleted
[14] = IC50 ratio HAP1 MTAP-intact vs HAP1 MTAP-deleted
[15] = Homo sapiens, HAP1, viability, HAP1 MTAP-deleted cell line
[16] = Homo sapiens, HAP1, viability IC50, MTAP-deleted cell line

T1 sequence (O14744 whole entry): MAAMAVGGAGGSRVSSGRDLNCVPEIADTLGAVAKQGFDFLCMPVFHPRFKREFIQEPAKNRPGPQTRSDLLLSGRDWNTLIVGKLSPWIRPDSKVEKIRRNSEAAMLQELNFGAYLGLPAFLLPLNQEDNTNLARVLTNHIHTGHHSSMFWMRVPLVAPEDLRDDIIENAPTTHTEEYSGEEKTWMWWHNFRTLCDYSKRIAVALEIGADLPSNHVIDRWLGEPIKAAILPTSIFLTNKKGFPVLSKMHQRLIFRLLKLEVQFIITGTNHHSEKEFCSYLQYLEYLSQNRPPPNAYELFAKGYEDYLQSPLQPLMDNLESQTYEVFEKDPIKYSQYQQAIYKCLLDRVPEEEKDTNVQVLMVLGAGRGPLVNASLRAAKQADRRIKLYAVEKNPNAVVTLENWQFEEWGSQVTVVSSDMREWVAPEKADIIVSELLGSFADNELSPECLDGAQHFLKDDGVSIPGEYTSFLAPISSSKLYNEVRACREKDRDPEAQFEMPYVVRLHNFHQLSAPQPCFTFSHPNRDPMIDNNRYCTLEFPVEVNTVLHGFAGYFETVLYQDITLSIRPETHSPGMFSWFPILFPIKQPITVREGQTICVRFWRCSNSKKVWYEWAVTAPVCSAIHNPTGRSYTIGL
T1 sequence (Q9BQA1 whole entry partner): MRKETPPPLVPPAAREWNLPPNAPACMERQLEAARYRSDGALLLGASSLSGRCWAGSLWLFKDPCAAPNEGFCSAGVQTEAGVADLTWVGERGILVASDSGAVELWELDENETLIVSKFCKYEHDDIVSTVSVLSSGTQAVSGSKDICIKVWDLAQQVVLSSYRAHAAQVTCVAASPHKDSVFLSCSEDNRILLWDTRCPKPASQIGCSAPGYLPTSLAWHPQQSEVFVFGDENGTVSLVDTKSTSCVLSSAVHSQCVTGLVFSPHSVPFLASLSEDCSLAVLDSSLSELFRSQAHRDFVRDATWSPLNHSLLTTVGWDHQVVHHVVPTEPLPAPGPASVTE

SMILES | pIC50 [1, 7] | pIC50 [2, 9] | pIC50 (PRMT5 [3]; [10]) | pIC50 (PRMT5 [4]) | pIC50 (PRMT5 [6]) | pIC50 [1, 12] | pIC50 (PRMT5 [3]; read-out: No Cofactor/rel IC50) | pIC50 ([2]; SDMA in-cell western) | MTAP intact/deleted ratio [1, 8] | pIC50 [5, 11] | pIC50 [5, 13] | MTAP intact/deleted ratio [1, 14] | pIC50 [5, 15] | pIC50 [5, 16] | pIC50 ([5]; viability assay, MTAP-deleted cell line)
COc1cccc([C@@H]2CC[C@@H](C)CN2C(=O)C(=O)Nc2cncc(C)c2)c1 (racemic) [Compound 28, rac-2-((2R,5S)-2-(3-methoxyphenyl)-5-methylpiperidin-1-yl)-N-(5-methylpyridin-3-yl)-2-oxoacetamide] | < 6.00 | < 6.00 | 6.30 to 7.30 | 6.30 to 7.30 | 6.30 to 7.30 |  |  |  | C (an IC50 ratio of less than 3 fold) | < 5.00 |  |  |  |  | 
C[C@@H]1CC[C@@H](c2ccc(F)c(Cl)c2)N(C(=O)C(=O)Nc2cncc(C(N)=O)c2)C1 (racemic) [Compound 338, rac-5-{2-[(2R,5S)-2-(3-Chloro-4-fluorophenyl)-5-methylpiperidin-1-yl]-2-oxoacetamido}pyridine-3-carboxamide] |  | < 6.00 |  | 6.30 to 7.30 | 6.30 to 7.30 | > 7.00 | 6.30 to 7.30 |  | A (an IC50 ratio greater than or equal to 10 fold) | 5.00 to 6.00 |  |  |  |  | 
Cc1cc(NC(=O)C(=O)N2C[C@H](C)CC[C@H]2C2CC3(CC(N)C3)C2)cnc1N (mixture of isomers) [Compound 773, N-(6-amino-5-methylpyridin-3-yl)-2-(2-(6-aminospiro[3.3]heptan-2-yl)-5-methylpiperidin-1-yl)-2-oxoacetamide] |  | < 6.00 |  | 6.30 to 7.30 | 6.30 to 7.30 | 6.00 to 7.00 | 6.30 to 7.30 |  | B (an IC50 ratio greater than or equal to 3 fold but lower than 10 fold) |  | 5.00 to 6.00 |  |  |  | 
NC(=O)c1cncc(NC(=O)C(=O)N2CC3(CCC2c2ccc(F)cc2)CC3)c1 (stereo not drawn) [Compound 776, 5-(2-(6-(4-fluorophenyl)-5-azaspiro[2.5]octan-5-yl)-2-oxoacetamido)nicotinamide] |  | < 6.00 |  | 6.30 to 7.30 | 6.30 to 7.30 | 6.00 to 7.00 | 6.30 to 7.30 |  | A (an IC50 ratio greater than or equal to 10 fold) |  | 5.00 to 6.00 |  |  |  | 
Cc1nc2cc([C@H]3CC[C@H](C)CN3C(=O)C(=O)Nc3cncc(C(N)=O)c3)ccc2s1 (single isomer, unassigned) [Compound 702] | < 6.00 | < 6.00 |  | < 6.30 | < 6.30 |  | < 6.30 |  | B (an IC50 ratio greater than or equal to 3 fold but lower than 10 fold) |  |  |  |  | < 5.00 | 
Cc1cc(NC(=O)C(=O)N2C[C@H](C)[C@H](OC(C)C)C[C@H]2c2ccccc2)cnc1N (single isomer, unassigned) [Compound 1351] | > 7.00 | > 7.00 | > 7.30 | > 7.30 | > 7.30 |  |  |  | B (an IC50 ratio greater than or equal to 3 fold but lower than 10 fold) |  |  |  | > 6.00 |  | 
Cc1cc(NC(=O)C(=O)N2C[C@H](C)CC[C@H]2c2ccc(F)c(O)c2)cnc1N (racemic) [Compound 555, N-(6-amino-5-methyl-3-pyridyl)-2-[(2R,5S)-2-(4-fluoro-3-hydroxy-phenyl)-5-methyl-1-piperidyl]-2-oxo-acetamide] | > 7.00 | 6.00 to 7.00 |  | > 7.30 | 6.30 to 7.30 |  | 6.30 to 7.30 |  | A (an IC50 ratio greater than or equal to 10 fold) |  |  |  |  | > 6.00 | 
CC(=O)N1CCC(c2cccc(C3CCCCN3C(=O)C(=O)Nc3cnc(N)c(C)c3)c2)CC1 (single isomer, unassigned) [Compound 94] | > 7.00 |  | 6.30 to 7.30 | > 7.30 | 6.30 to 7.30 |  |  | 6.00 to 7.00 | B (an IC50 ratio greater than or equal to 3 fold but lower than 10 fold) |  |  |  |  |  | 5.00 to 6.00

Second part, led by results:

pIC50 [1, 7] | pIC50 [2, 9] | pIC50 (PRMT5 [3]; [10]) | pIC50 (PRMT5 [4]) | pIC50 (PRMT5 [6]) | pIC50 [1, 12] | pIC50 (PRMT5 [3]; read-out: No Cofactor/rel IC50) | pIC50 ([2]; SDMA in-cell western) | SMILES | MTAP intact/deleted ratio [1, 8] | pIC50 [5, 11] | pIC50 [5, 13] | MTAP intact/deleted ratio [1, 14] | pIC50 [5, 15] | pIC50 [5, 16] | pIC50 ([5]; viability assay, MTAP-deleted cell line)
 | 6.00 to 7.00 |  | > 7.30 | 6.30 to 7.30 | > 7.00 | > 7.30 |  | CCc1cc(NC(=O)C(=O)N2C[C@@H](C)CC[C@@H]2c2ccc3sc(-c4cccnc4)nc3c2)cnc1N [Compound 1200, N-(6-amino-5-ethylpyridin-3-yl)-2-((2R,5S)-5-methyl-2-(2-(pyridin-3-yl)benzo[d]thiazol-5-yl)piperidin-1-yl)-2-oxoacetamide] |  | > 6.00 |  | A (an IC50 ratio greater than or equal to 10 fold) |  |  | 
 | < 6.00 |  | > 7.30 | 6.30 to 7.30 | > 7.00 | > 7.30 |  | Cc1cc(NC(=O)C(=O)N2C[C@@H](C)CC[C@@H]2c2cc(F)cc(F)c2)cnc1N (single isomer, unassigned) [Compound 734, N-(6-amino-5-methylpyridin-3-yl)-2-(2-(3,5-difluorophenyl)-5-methylpiperidin-1-yl)-2-oxoacetamide] | A (an IC50 ratio greater than or equal to 10 fold) |  | 5.00 to 6.00 |  |  |  | 
 | > 7.00 |  | > 7.30 | 6.30 to 7.30 | > 7.00 | > 7.30 |  | Cc1cc(NC(=O)C(=O)N2C[C@@H](C)CC[C@@H]2c2ccc3sc(-c4cnn(C)c4)nc3c2)cnc1N (racemic) [Compound 1104, rac-N-(6-amino-5-methylpyridin-3-yl)-2-((2R,5S)-5-methyl-2-(2-(1-methyl-1H-pyrazol-4-yl)benzo[d]thiazol-5-yl)piperidin-1-yl)-2-oxoacetamide] |  | > 6.00 |  | B (an IC50 ratio greater than or equal to 3 fold but lower than 10 fold) |  |  | 
 | < 6.00 |  | > 7.30 | 6.30 to 7.30 | > 7.00 | > 7.30 |  | COc1ncc(NC(=O)C(=O)N2C[C@@H](C)CC[C@@H]2c2ccc(C(N)=O)s2)cc1C(N)=O (single isomer, unassigned) [Compound 837] | A (an IC50 ratio greater than or equal to 10 fold) |  | > 6.00 |  |  |  | 
> 7.00 | > 7.00 | > 7.30 | > 7.30 | > 7.30 |  |  |  | COc1ncc(NC(=O)C(=O)N2C[C@@H](C)CC[C@@H]2c2ccc3sc([C@H]4CCN(C)C4)nc3c2)cc1C(N)=O (racemic) [Compound 1260, 2-methoxy-5-[[2-oxo-2-[rac-(2R,5S)-5-methyl-2-[2-[rac-(3S)-1-methylpyrrolidin-3-yl]-1,3-benzothiazol-5-yl]-1-piperidyl]acetyl]amino]pyridine-3-carboxamide] | A (an IC50 ratio greater than or equal to 10 fold) |  |  |  | > 6.00 |  | 
 | 6.00 to 7.00 |  | > 7.30 | 6.30 to 7.30 | > 7.00 | > 7.30 |  | CCc1cc(NC(=O)C(=O)N2C[C@H](C)CC[C@H]2c2ccc(C(N)=O)s2)cnc1N (single isomer, unassigned) [Compound 838] | A (an IC50 ratio greater than or equal to 10 fold) |  | > 6.00 |  |  |  | 
> 7.00 | > 7.00 |  | > 7.30 | 6.30 to 7.30 |  | 6.30 to 7.30 |  | Cc1cc(NC(=O)C(=O)N2C[C@@H](C)CC[C@@H]2c2ccc(-c3cncs3)cc2)cnc1N (single isomer, unassigned) [Compound 887, N-(6-amino-5-methylpyridin-3-yl)-2-(5-methyl-2-(4-(thiazol-5-yl)phenyl)piperidin-1-yl)-2-oxoacetamide] | B (an IC50 ratio greater than or equal to 3 fold but lower than 10 fold) | > 6.00 |  |  |  |  | 
